Assay results: patent publication US10512624B2, “Long-chain amphipathic dicarboxylic acids for treatment of diabetes type-1” (Syndromex Ltd., priority 2016, dated 2019)

Experiments:
STZ diabetic rats = test: Anti-diabetic efficacy in streptozotocin (STZ) diabetic rats (FBG, IPGTT, IPITT, fluid balance, insulin/glucagon content); type: in vivo, rat; conditions: sub-therapeutic insulin NPH 3 u/kg b.i.d alone, STZ diabetic rats
Experimental: Male Sprague-Dawley (SD) rats weighing 250-275 gr were fed ad libitum (Harlan Teklad 2018), had free access to water, and were kept on a 12:12 h light:dark cycle. Experimental type 1 diabetes (T1D) was induced in overnight fasted rats by a single intra-peritoneal injection of streptozotocin (STZ, 60 mg/kg body weight, Sigma Aldrich) freshly prepared in 0.1 M of cold citrate buffer (pH 4.5), followed by oral 10% glucose solution for the next 24 hours to overcome STZ-induced acute hypoglycemia. STZ diabetic rats (defined as having a fasting blood glucose (FBG) level higher than 300 mg/dl) were selected for further studies.
SHAM (control) rats were injected with 0.1 M of cold citrate buffer (pH 4.5). STZ diabetic or SHAM rats were dosed twice daily by gavage (orally) with 1% CMC (Sigma Aldrich C5678), or with HOOC—C(CH3)2—(CH2)12—C(CH3)2—COOH (2,2,15,15-tetramethylhexadecane-1,16-dioic acid) also termed herein “MEDICA16αα”, “Medica16αα” or M16αα(15 mg/kg body weight) suspended in 1% CMC, or injected intraperitoneal (i.p.) with Neutral Protamine Hagedorn (NPH) insulin (3 u/kg body weight b.i.d), as indicated.
(§1) Administering a combination of Medica16αα and insulin was performed by treating STZ diabetic rats (FBG >300 mg/dl) with oral MEDICA16αα(15 mg/kg b.i.d) for five consecutive days, then MEDICA16αα-responsive rats were further treated with MEDICA16αα(15 mg/kg b.i.d) for 10 additional consecutive days (“STZ/MEDICA Res”), and MEDICA16αα non-responsive rats (FBG >250 mg/dl) were further treated for 10 additional consecutive days with either insulin Neutral Protamine Hagedorn (NPH) (3 u/kg b.i.d subcutaneously) (“STZ/NPH”), or with insulin NPH (3 u/kg b.i.d subcutaneously in combination with oral MEDICA16αα(15 mg/kg b.i.d) (“STZ/MEDICA NPH”).
Tail vein FBG was verified daily by a glucometer (Glucometer®, Accu-Check® Performa, Roche Diagnostics). Urine secretion, food and water consumption were measured in standard metabolic cages (Tecniplast™ Metabolic Cage Systems for Rodents) for 48 hour periods. Samples were collected and recorded every 12 hour.
Overnight fasted rats were injected i.p (1 gr glucose/kg bw) with 20% dextrose solution (Teva Medical). Tail vein blood was sampled on 0, 30, 60, 90 and 120 minutes following glucose injection.
Fasted rats (5 hours fast) were injected i.p (2 u/kg bw) with HumulinR insulin (Eli Lilly). Tail blood glucose levels were measured by glucometer at 0, 15, 30, 60, and 120 min following insulin injection.
(§2) Pancreas and plasma insulin and glucagon content were determined by insulin (Millipore, Cat #RI-13K) and glucagon (Millipore, Cat # GL-32K) radioimmunoassay (RIA) kits. cAMP levels were measured by cAMP kit (Arbor Assays, DetectX Cat # K019-H1).

hepatic gluconeogenesis = test: Suppression of hepatic gluconeogenesis in STZ diabetic rats (RT-PCR, Western blot, cAMP kit); type: in vivo, rat
Experimental: as §1
Sampled frozen tissue was homogenized (Polytron) in lysis buffer (50 mM Tris HCl, pH 8.0, 1% Triton X-100, 1 mM EGTA, 1 mM EDTA, 150 mM NaCl, 5 mM NaPPi, 50 mM NaF, 1 mM PMSF, 1 mM Na Vanadate, 40 nM bpVfan and protease inhibitor cocktail (Sigma)), and centrifuged for 15 min at 12,500 rpm.
Protein lysates were prepared in sodium dodecyl sulfate (SDS) sample buffer (62 mM Tris (pH 6.8), 2.3% SDS, […] mercaptoethanol, 10% glycerol), and were subjected to SDS-PAGE, electro-transferred onto cellulose nitrate membranes (Schleicher & Schuell) and probed with the indicated first antibody, followed by HRP-labeled second antibody. Protein concentration was determined by BCA (Thermo Scientific). Bands were detected by ECL, and the intensity of individual bands was determined by densitometry using ImageJ 1.48 v software.
Sampled frozen tissue was homogenized (Polytron) in lysis buffer (50 mM Hepes (pH 7.4), 150 mM NaCl, 10% Glycerol, 1.5 mM MgCl2, 1 mM EGTA, 1% Triton, 50 mM β-glycerolphosphate, 25 mM NaF, 1 mM Na-vanadate, 40 nM bpVphen, protease inhibitor mix (Sigma) and 17.5 mg/ml octyl beta-D-glucopyranoside (Sigma)). Lysates were kept on ice for 30 min and centrifuged at 12000 rpm for 15 min. Lysates ([…]) were incubated for 4 h with protein A/G beads (Santa Cruz Biotechnology) pre-loaded with the indicated antibody. The immune-precipitate was rinsed 3 times with washing buffer (20 mM Hepes (pH 7.4), 150 mM NaCl, 0.1% Tx-100, 10% glycerol), re-suspended in SDS sample buffer, boiled for 8 min, and analyzed by SDS-PAGE.
Total RNA was prepared using the TRI reagent (Sigma Aldrich). First-strand cDNA used as template was synthesized by reverse transcription using oligo(dT) as primer and the Reverse-iTMAX First Strand Kit (ABgene, Epson). Glucose-6-phosphatase (G6Pase) and phosphoenolpyruvate carboxykinase (PEPCK) transcripts normalized by tubulin were quantified by real-time PCR (Rotor Gene RG-3000A) using SYBER green MasterMix (Absolute Syber Green ROX Mix, ABgene) and the following primers: […]
as §2

T1D patients = conditions: insulin-treated (>1 u/kg body weight/day) T1D patients, meta-analysis (ref 12); cited from earlier work
[1] = tested on: STZ diabetic rat model, NOD mouse model; conditions: cited from earlier work
[2] = tested on: adipose adenylate cyclase; conditions: cited from earlier work

With “insulin NPH: Neutral Protamine Hagedorn (NPH) insulin, intermediate-acting insulin, used at sub-therapeutic dose 3 u/kg b.i.d” as the compound, how does the “controlling glycemia (FBG, IPGTT, IPITT, fluid balance)” value (STZ diabetic rats) read?
Its value is “without any effect”.

And the “hepatic phospho-CREB(Ser179)” value (hepatic gluconeogenesis)?
The value was “ineffective”.

What about the “hepatic phospho-CRTC2(Ser171)” value (hepatic gluconeogenesis) of the same compound?
Its value is “not”.

And the “hepatic glucose-6-phosphatase and PEPCK transcripts” value (hepatic gluconeogenesis; compared with STZ/CMC and SHAM/CMC)?
The value was “essentially unaffected”.

For CN(C)C(=N)N=C(N)N [metformin], which “reduction in daily insulin usage” value (T1D patients) is on record?
Its value is 1.4 u/d.

And the “normalizing STZ-induced diabetes, or preventing or delaying autoimmune T1D in NOD mouse” value [1]?
The value was “ineffective or only marginally effective”.

Which adipose adenylate cyclase [2] does the source give for CC(C)(CCCCCCCCCCC(C)(C)CC(=O)O)CC(=O)O [MEDICA16ββ, 3,3,14,14-tetramethylhexadecane-1,16-dioic acid] here?
Its adipose adenylate cyclase is “inhibit”.
